Assay results taken from ChEMBL document CHEMBL3112414, “Synthesis of 3-tetrazolylmethyl-4H-chromen-4-ones via Ugi-azide and biological evaluation against Entamoeba histolytica, Giardia lamblia and Trichomona vaginalis” (Bioorg Med Chem, 2014).

Columns and labels:
Type in all cases: functional, organism-based
Entamoeba histolytica = test: Antiprotozoal activity against trophozoite stage of Entamoeba histolytica HM-1:IMSS assessed as growth inhibition after 48 hrs
Giardia intestinalis = test: Antiprotozoal activity against trophozoite stage of Giardia lamblia IMSS:8909:1 assessed as growth inhibition after 48 hrs; settings: Giardia duodenalis, IMSS:8909:1, 48 h
Trichomonas vaginalis = test: Antiprotozoal activity against trophozoite stage of Trichomonas vaginalis GT3 assessed as growth inhibition

Structure (SMILES): Cc1ncc([N+](=O)[O-])n1CCO [METRONIDAZOLE]
- IC50 (Entamoeba histolytica): 0.23 µg/mL
- IC50 (Giardia intestinalis): 1.22 µg/mL

Structure (SMILES): O=c1c(C(Nc2ccc([N+](=O)[O-])cc2)c2nnnn2C2CCCCC2)coc2ccccc12 (stereo not given)
- IC50 (Entamoeba histolytica): 116 µM
- IC50 (Trichomonas vaginalis): 205 µM
- IC50 (Giardia intestinalis): 247 µM

Structure (SMILES): O=c1c(C(Nc2ccccc2I)c2nnnn2C2CCCCC2)coc2ccccc12 (stereo not given)
- IC50 (Entamoeba histolytica): 122 µM
- IC50 (Trichomonas vaginalis): 282 µM
- IC50 (Giardia intestinalis): 198 µM

Structure (SMILES): COc1cc(NC(c2coc3ccccc3c2=O)c2nnnn2C2CCCCC2)cc(OC)c1OC (stereo not given)
- IC50 (Entamoeba histolytica): 87.9 µM
- IC50 (Trichomonas vaginalis): 176 µM
- IC50 (Giardia intestinalis): 171 µM

Structure (SMILES): O=c1c(C(Nc2ccccc2)c2nnnn2C2CCCCC2)coc2ccccc12 (stereo not given)
- IC50 (Entamoeba histolytica): 183 µM
- IC50 (Trichomonas vaginalis): 374 µM
- IC50 (Giardia intestinalis): 286 µM

Structure (SMILES): CC(C)(C)n1nnnc1C(Nc1ccc(Cl)cc1)c1coc2ccccc2c1=O (stereo not given)
- IC50 (Entamoeba histolytica): 161 µM
- IC50 (Trichomonas vaginalis): 371 µM
- IC50 (Giardia intestinalis): 269 µM

Structure (SMILES): CC(C)(C)n1nnnc1C(Nc1ccc(I)cc1)c1coc2ccccc2c1=O (stereo not given)
- IC50 (Entamoeba histolytica): 142 µM
- IC50 (Trichomonas vaginalis): 246 µM
- IC50 (Giardia intestinalis): 197 µM

Structure (SMILES): CC(C)(C)n1nnnc1C(Nc1ccccc1)c1coc2ccccc2c1=O (stereo not given)
- IC50 (Entamoeba histolytica): 188 µM
- IC50 (Trichomonas vaginalis): 432 µM
- IC50 (Giardia intestinalis): 316 µM

Structure (SMILES): O=c1c(C(Nc2ccccc2[N+](=O)[O-])c2nnnn2C2CCCCC2)coc2ccccc12 (stereo not given)
- IC50 (Entamoeba histolytica): 124 µM
- IC50 (Trichomonas vaginalis): 188 µM
- IC50 (Giardia intestinalis): 194 µM

Structure (SMILES): CC(C)(C)n1nnnc1C(Nc1ccccc1Br)c1coc2ccccc2c1=O (stereo not given)
- IC50 (Entamoeba histolytica): 125 µM
- IC50 (Trichomonas vaginalis): 234 µM
- IC50 (Giardia intestinalis): 242 µM

Structure (SMILES): O=c1c(C(Nc2ccc(Cl)cc2)c2nnnn2C2CCCCC2)coc2ccccc12 (stereo not given)
- IC50 (Entamoeba histolytica): 176 µM
- IC50 (Trichomonas vaginalis): 284 µM
- IC50 (Giardia intestinalis): 218 µM

Structure (SMILES): COc1ccc(NC(c2coc3ccccc3c2=O)c2nnnn2-c2c(C)cccc2C)cc1OC (stereo not given)
- IC50 (Entamoeba histolytica): 111 µM
- IC50 (Trichomonas vaginalis): 192 µM
- IC50 (Giardia intestinalis): 240 µM

Structure (SMILES): O=c1c(C(Nc2ccc(I)cc2)c2nnnn2C2CCCCC2)coc2ccccc12 (stereo not given)
- IC50 (Entamoeba histolytica): 117 µM
- IC50 (Trichomonas vaginalis): 222 µM
- IC50 (Giardia intestinalis): 226 µM

Structure (SMILES): CC(C)(C)n1nnnc1C(Nc1ccccc1I)c1coc2ccccc2c1=O (stereo not given)
- IC50 (Entamoeba histolytica): 134 µM
- IC50 (Trichomonas vaginalis): 280 µM
- IC50 (Giardia intestinalis): 207 µM

Structure (SMILES): COc1ccc(-c2coc3cc(O)ccc3c2=O)cc1 [FORMONONETIN]
- IC50 (Giardia intestinalis): 0.03 µg/mL

Structure (SMILES): O=c1c(C(Nc2ccccc2Br)c2nnnn2C2CCCCC2)coc2ccccc12 (stereo not given)
- IC50 (Entamoeba histolytica): 114 µM
- IC50 (Trichomonas vaginalis): 195 µM
- IC50 (Giardia intestinalis): 253 µM
